The source of these data is patent publication US9604932B2 (priority 2013, dated 2017).

A short description of series [1]: Plasma pharmacokinetics in sheep (release of R-100 from R-107), LCMS. Type of series: in vivo. Here is the method:
In the following two experiments, the pharmacokinetic of releasing R-100 from R-107, via R-105 that is the reduced form of R-100, was studied in vivo according to the protocol described herein.
100 μl aliquots plasma obtained from R-107-treated sheep or pig were thawed and 200 μl ice-cold ethanol was added to each 100 μl sample to precipitate protein. Samples were then vortexed, placed on ice for 10 minutes, and then spun down at room temperature for 15 minutes. A first 100 μl supernatant from each spun sample was withdrawn and placed in a labeled HPLC micro vial to which 300 μl MPA (LC mobile phase A) was added, and the vial contents were then mixed and submitted for LCMS analysis (kept at 4° C.). The concentration of R-107 was measured in this sample as was the concentration of R105. A second 100 μl supernatant from each spun sample was added to a labelled HPLC micro vial to which 300 μl MPA and 2 μl of Reducing solution (ascorbic acid, 1.0 mg/ml in water) were added. These vials were vortexed; incubated at 50° C. for 1 hour with gentle shaking; and were then cooled to 4° C. and submitted for LCMS analysis. This sample was analyzed for R105, i.e., reduced form of R-100, and the amount measured thus represents the sum of R-100 and R-105 originally present in the plasma. The concentration of R-100 can be calculated from that of the R-105 in the second sample minus that of R-105 in the first sample. However, the concentrations of R-105 were seen to be low (approximately 10% or less of those of R-100) and so the results reported below as R-100 are not corrected for R-105.
Sets of standards (R-100, R-105 and R-107) were prepared by spiking individually in pig plasma. 100 μl aliquots of these spiked plasma samples, after thawing, were included in the above extraction protocol.
Analysis method were carried out with an Agilent HPLC stack, with column eluate directed, via a diverter valve, into the source of an AB Sciex ‘Qstar Elite’ Hybrid TOF, high-resolution mass spectrometer. LC column: Phenomenex Kinetex C18 2.6u 100A, 2.1×50 mm. LC mobile phase A: H2O with 0.02% trifluoroacetic acid (TFA), 0.1% formic acid (HOF); Phase B: acetonitrile (ACN) with 0.02% TFA, 0.1% HOF. Mobile phase flow rate=500 μl/min. Injection size: 8 μl, via Agilent 1100 u-WPS autosampler. […]

Series [2] has as its system limb ischemia reperfusion injury (LIRI). In words: Minipig model of limb ischemia-reperfusion injury. As to conditions: protocol only; 10, 30, 80 mg/kg/day TID. Type of series: in vivo, minipigs. Here is the method: In this study, the efficacy of R-107 in a limb ischemia reperfusion injury (LIRI) is tested. In a large animal model of acute LIRI (n=6 minipigs per group) induced by an endovascular balloon occlusion of the femoral artery for 6 hours, parenteral R-107 (0, 10, 30, 80 mg/kg/day TID) is initiated 10 minutes before reperfusion via direct arterial infusion, followed by an IV infusion thereafter. At 7, 14, and 21 days after reperfusion, limb perfusion (by Doppler flow) is correlated with nerve conduction velocity (NCV, per electromyography, EMG), and muscle strength (by foot pressure on a walking surface) with simultaneous plasma concentrations of R-107.

In series [3] the test system is acute retinal ischemia-reperfusion injury. Briefly: Porcine model of acute retinal ischemia-reperfusion injury. The series is classed as in vivo. The settings on record: protocol only; 10, 30, 80 mg/kg/day IV BID. Here is the method:
In this study, a porcine model of acute retinal ischemia-reperfusion injury (n=6 per group) is induced by equilibration with an elevated saline reservoir to create a static IOP of 90 mmHg for 90 min. Task #1: Microvascular responsiveness: A dose-response of parenteral R-107 (0, 10, 30, 80 mg/kg/day IV BID) is initiated 10 minutes before reperfusion. 1 hour after reperfusion, retinal microvessels are harvested and cannulated for ex vivo analysis of vascular responsiveness to endothelium dependent and independent vasodilators. Task #2: Retinal function and morphology: R-107 is given 10 minutes before reperfusion (at a dose determined by Task #1) and its efficacy judged by electroretinogram (1, 2, 7 days post-reperfusion) and retinal histology, ultrastructure, and drug concentration (Day 7).

Series [4] has as its system retinal ischemia-reperfusion injury. In words: Murine model of retinal ischemia-reperfusion injury. Type of series: in vivo, C57BL/6 mice. The settings on record: protocol only; 30 mg/kg/day IP BID. How it is done: In this study, the efficacy of R-107 in subacute murine model of retinal ischemia-reperfusion injury is tested, using male C57BL/6 mice (n=10 per group). Briefly, the anterior chamber of the right eye is cannulated with a 30 gauge needle attached to a line infusing sterile saline. The intraocular pressure (IOP) is raised to 110 mmHg by elevating the saline reservoir. The left eye undergoes sham surgery, in which the needle is inserted into the anterior chamber without elevating IOP. R-107 is injected (30 mg/kg/day IP BID) commencing directly before reperfusion. 2 vehicle controls (normal saline and HPCD) is compared to drug therapy. Treatments are repeated twice daily thereafter until sacrifice. The outcome of these pharmacologic studies is quantitatively assessed by using terminal deoxynucleotidyl transferase dUTP nick end labeling (TUNEL) to measure retinal cell death (after 3 days), confocal imaging to quantify survival of ganglion cell layer neurons (after 7 days), and electroretinogram recordings to measure retinal neuronal function (after 21 days).

The test system of series [5] is peripheral hypertension (HTN). In words: Minipig model of peripheral hypertension. Type of series: in vivo, minipigs. As to conditions: protocol only; enterically-coated oral capsule. Here is the method: In order to test the efficacy of R-107 in peripheral hypertension (HTN), a series of 3 hemodynamic studies is carried out in conscious, instrumented, ambulatory, and telemetered minipigs (n=5) with HTN secondary to an endovascular-created, unilateral, renovascular stenosis. Minipigs are treated with R-107 administered as an enterically-coated oral capsule.
In Series A, the pharmacokinetic profile and hemodynamic effect of a single administration of R-107 (3, 10, 20, 30 mg/kg) is correlated with a one-week washout period between successive dose levels. Animals are monitored for 24 hours to collect continuous hemodynamic data and intermittent plasma concentrations of R-107 and its metabolites (0, 0.25, 0.5, 0.75, 1, 2, 4, 6, 8, 12, 16, 20, and 24 hours). In Series B, the most promising 2 doses of R-107 from Series A are evaluated by carrying out a repeat-dose study of R-107 administered every 6 hours (q6h) for a period of 3 days. The hemodynamic effects of R-107 are correlated with plasma peak and trough concentrations of R-107 and its metabolites obtained q6h. In Series C, the emergence of tachyphylaxis to R-107 in a 2 week repeat-dose study (q6h) is evaluated utilizing the optimal dose determined in Series B, wherein hemodynamics are correlated with plasma pharmacokinetic determinations as in Series B.

For `CC(=O)ON1C(C)(C)CC(CO[N+](=O)[O-])C1(C)C` (stereo not drawn) [R-107, 2,2,5,5-tetramethyl-3-(nitrooxymethyl)pyrrolidin-1-yl acetate], the R-100 in plasma entry in series [1] (IM neat R-107 25 mg/kg, 48 hrs post dose) is given as “not detected”. For the same compound, the R-107 in plasma result is recorded as “not detected” in series [1] (IV neat R-107 25 mg/kg over 10 minutes, 2 hrs post dose); “not detected” in series [1] (IV neat R-107 25 mg/kg over 10 minutes, 4 hrs post dose); “not detected” in series [1] (IV neat R-107 25 mg/kg over 10 minutes, 6 hrs post dose); “not detected” in series [1] (IV neat R-107 25 mg/kg over 10 minutes, 8 hrs post dose); “not detected” in series [1] (IV neat R-107 25 mg/kg over 10 minutes, 24 hrs post dose). This compound also came in with a concentration at 0 h in series [1] (plasma, IV neat R-107 25 mg/kg over 10 minutes, 0 hrs post dose) of 0 ng/mL. The compound also returned a concentration at 0.1 h in series [1] (plasma, IV neat R-107 25 mg/kg over 10 minutes, 0.1 hrs post dose) of 5500 ng/mL. Moreover, the concentration at 0.4 h in series [1] (plasma, IV neat R-107 25 mg/kg over 10 minutes, 0.4 hrs post dose) was found to be 1210 ng/mL. The concentration at 0.5 h in series [1] (plasma, IV neat R-107 25 mg/kg over 10 minutes, 0.5 hrs post dose) turned out to be 200 ng/mL. Also, the concentration at 1 h in series [1] (plasma, IV neat R-107 25 mg/kg over 10 minutes, 1 hrs post dose) is 0 ng/mL. In series [2], the “Efficacy in minipig model of limb ischemia-reperfusion injury” value was “Effective”. Further, the “Efficacy in porcine model of acute retinal ischemia-reperfusion injury” value in series [3] is reported as “Effective”. In series [4], the “Efficacy in murine model of retinal ischemia-reperfusion injury” value is on record as “Effective”. The “Efficacy in minipig model of peripheral hypertension” value in series [5] is “Effective”.
